Counter-ions that a name gives are not always drawn.
How the values were obtained:
human 5-HT3 receptor = target: T1, human 5-HT3 receptor (Homo sapiens, UniProt P46098); assay: Measurement of affinity to human 5-HT3 receptor (in vitro), [3H]BRL-43694 binding; conditions: test compound 100 nmols/L; [3H]BRL-43694 0.5 nmols/L; HEK-293 cell membrane expressing human 5-HT3 receptor; read-out: Percent Inhibition (%) on Each Receptor's Binding at 10^−7M, 5-HT3
T1 construct: purchased BIOLINKS K.K; host or cells: HEK-293 cells (membrane preparation)
T1 sequence (P46098 24-478): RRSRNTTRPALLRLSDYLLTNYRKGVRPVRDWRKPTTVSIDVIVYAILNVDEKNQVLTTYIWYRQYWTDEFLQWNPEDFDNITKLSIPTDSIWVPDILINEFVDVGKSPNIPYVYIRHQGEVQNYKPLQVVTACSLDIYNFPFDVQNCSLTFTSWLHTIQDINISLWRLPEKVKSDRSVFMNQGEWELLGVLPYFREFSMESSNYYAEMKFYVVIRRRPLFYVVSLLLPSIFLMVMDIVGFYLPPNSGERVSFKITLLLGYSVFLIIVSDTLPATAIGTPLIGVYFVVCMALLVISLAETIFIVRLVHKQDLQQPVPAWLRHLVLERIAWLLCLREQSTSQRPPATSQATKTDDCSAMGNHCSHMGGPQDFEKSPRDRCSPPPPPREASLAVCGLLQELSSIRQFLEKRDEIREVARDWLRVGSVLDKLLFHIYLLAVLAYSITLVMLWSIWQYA
Method: (2) Measurement of Affinity of Each Test Compound to Human 5-HT3 Receptor (in Vitro):
HEK-293 cell membrane sample in which human 5-HT3 receptor was expressed (purchased from BIOLINKS K.K.) 0.05 mL (about 50 microassay) was added to 24.95 mL of incubation buffer solution B (an aqueous solution of a mixture of 50 mmols/L of Tris-hydrochloric acid, 5 mmols/L of magnesium chloride and 1 mmol/L of EDTA, whose pH was adjusted to 7.5 at 25° C. with 1N-aqueous sodium hydroxide solution) and homogenized, to provide a membrane sample suspension B. Separately, each test compound was made into 270 μmols/L of DMSO solution and diluted to a prescribed concentration with the incubation buffer solution B to provide a compound solution.
A piece of polypropylene tube was charged with 20 μL of [^3H]BRL-43694 (purchased from Daiichi Pure Chemicals Co., Ltd.) (The concentration of [^3H]BRL-43694 had been advancedly adjusted to render its concentration in the reaction mixture to 0.5 nmols/L.) and 20 μL of one of the compound solutions. Further 500 μL of the membrane sample suspension B was added into the tube, followed by 60 minutes' incubation at 25° C. The reaction was terminated by rapid filtration of the reaction mixture through GF/B filter which had been advancedly immersed in a solution formed by adding to the incubation buffer solution B polyethyleneimine to a concentration of 0.5%, using Brandel cell harvester. Then the filter was washed with about 5 mL of 50 mmols/L of Tris-hydrochloric acid which had been cooled to 4° C. The filter was once again washed after similar operation.
(§1) Residual radioactivity on the filter was measured with liquid scintillation counter (ALOKA CO., LTD. LSC-5100). Percent inhibition (%) of each test compound to binding of [^3H]BRL-43694 to 5-HT3 receptor at a concentration of 0.5 nmols/L, i.e., affinity of each test compound to 5-HT3 receptor, can be calculated according to the following expression. The ratio of non-specific binding was calculated by measuring the radioactivity in case of using tropisetron: (ICS 205-930) at a concentration of 10 μmols/L, with which value the measured value of each test compound was compensated.
(§2) Affinity of each test compound to 5-HT1A receptor and 5-HT3 receptor at a concentration of 100 nmols/L were as shown in the following Tables A-1 and A-2. BRL-43694 and tropisetron (ICS 205-930), which were used in measuring affinity of those compounds to 5-HT3 receptor, have the following structures: […]

human 5-HT1A receptor = target: T2, human 5-HT1A receptor (Homo sapiens, UniProt P08908); assay: Affinity measurement of the compounds to human 5-HT1A receptor (in vitro), [3H]8-OH-DPAT binding; conditions: test compound 100 nmols/L; [3H]8-OH-DPAT 0.25 nmols/L; CHO cell membrane expressing human 5-HT1A receptor; read-out: Percent Inhibition (%) on Each Receptor's Binding at 10^−7M, 5-HT1A
T2 construct: purchased Packard Bioscience; host or cells: CHO cells (membrane preparation)
T2 sequence (P08908 1-422): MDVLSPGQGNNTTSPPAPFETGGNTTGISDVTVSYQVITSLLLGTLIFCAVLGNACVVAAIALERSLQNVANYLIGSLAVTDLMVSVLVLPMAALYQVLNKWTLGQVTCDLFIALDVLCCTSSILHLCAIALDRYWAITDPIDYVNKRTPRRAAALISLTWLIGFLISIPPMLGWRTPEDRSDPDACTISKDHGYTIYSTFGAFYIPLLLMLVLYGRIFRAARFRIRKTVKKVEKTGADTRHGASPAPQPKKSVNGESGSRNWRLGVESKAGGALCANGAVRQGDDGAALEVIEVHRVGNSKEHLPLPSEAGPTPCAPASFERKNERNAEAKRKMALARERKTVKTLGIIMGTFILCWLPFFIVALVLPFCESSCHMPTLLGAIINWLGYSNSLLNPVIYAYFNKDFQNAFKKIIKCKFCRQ
Method: (1) Affinity Measurement of the Compounds to Human 5-HT1A Receptor (in Vitro)
CHO cell membrane sample in which human 5-HT1A receptor was expressed (purchased from Packard Bioscience) 0.25 mL (about 50 units) was added to 24.75 mL of incubation buffer solution A (an aqueous solution of a mixture of 50 mmols/L of Tris-hydrochloric acid, 10 mmols/L of magnesium sulfate, 0.5 mmols/L of EDTA and 0.1% ascorbic acid, whose pH was adjusted to 7.4 at 27° C. with 1N-aqueous sodium hydroxide solution), and labeled as membrane sample suspension A. Separately, each test compound was made into 270 μmols/L DMSO solution and diluted to a prescribed concentration with the incubation buffer solution A, to provide a compound solution.
A piece of polypropylene tube was charged with 20 μL of [^3H]8-OH-DPAT (8-hydroxy-2-(di-n-propylamino)tetralin; purchased from Daiichi Pure Chemicals Co., Ltd.) (The concentration of the [^3H]8-OH-DPAT had been advancedly adjusted to render its concentration in the reaction mixture to 0.25 nmols/L) and 20 μL of one of the compound solutions. Further 500 μL of the membrane sample suspension A was added into the tube, followed by 60 minutes' incubation at 27° C. The reaction was terminated by rapid filtration of the reaction mixture through GF/C filter which had been advancedly immersed in a solution formed by adding to the incubation buffer solution A polyethyleneimine to a concentration of 0.3%, using Brandel cell harvester. Then the filter was washed with about 5 mL of 50 mmols/L of Tris-hydrochloric acid which had been cooled to 4° C. The filter was once again washed after similar operation.
as §1, with “(Aloka Co.,” for “(ALOKA CO., LTD.”, “[^3H]8-OH-DPAT” for “[^3H]BRL-43694”, “5-HT1A” for “5-HT3”, “0.25” for “0.5”, “8-OH-DPAT” for “tropisetron: (ICS 205-930)”
as §2

| Compound | inhibition at 0.1 µM (human 5-HT3 receptor) [%] | inhibition at 0.1 µM (human 5-HT1A receptor) [%] |
| --- | --- | --- |
| c1cc2ccoc2c(N2CCN3CCCCC3C2)n1 (stereo not shown) [Production Example 118, 7-octahydropyrido[1,2-a]pyrazin-2-ylfuro[2,3-c]pyridine] | 84.9 | 76 |
| c1ccc(CO[C@@H]2C[C@H]3CN(c4nccc5ccsc45)CCN3C2)cc1 [Production Example 116, 7-((7R,8aS)-7-benzyloxyoctahydropyrrolo[1,2-a]pyrazin-2-yl)thieno-[2,3-c]pyridine] | 25.6 | 70.6 |
| c1ccc(CO[C@@H]2C[C@H]3CN(c4nccc5sccc45)CCN3C2)cc1 [Production Example 117, 4-((7R,8aS)-7-benzyloxyoctahydropyrrolo[1,2-a]pyrazin-2-yl)thieno-[3,2-c]pyridine] | 10.6 | 57.7 |
| c1cnc2c(N3CCN4CCC[C@H]4C3)nccc2c1 [Production Example 74, 8-((8aS)-octahydropyrrolo[1,2-a]pyrazin-2-yl)-1,7-naphthyridine] | 98.9 | 94.6 |
| COc1ccc2ccnc(N3CCN(C)CC3)c2c1 [Production Example 32, 7-methoxy-1-(4-methylpiperazin-1-yl)isoquinoline] | 94.4 | 91.7 |
| CN1CCN(c2nccc3ccc(F)cc23)CC1 [Production Example 52, 7-fluoro-1-(4-methylpiperazin-1-yl)isoquinoline] | 97 | 84.1 |
| c1cc2occc2c(N2CCN3CCCCC3C2)n1 (stereo not shown) [Production Example 119, 4-octahydropyrido[1,2-a]pyrazin-2-ylfuro[3,2-c]pyridine] | 71.9 | 33.7 |
| O[C@@H]1C[C@H]2CN(c3nccc4ccoc34)CCN2C1 [Production Example 111, 7-((7R,8aS)-7-hydroxyoctahydropyrrolo[1,2-a]pyrazin-2-yl)furo[2,3-c]-pyridine] | 95.5 | 48 |
| CCN1CCN(c2nccc3ccsc23)CC1 [Production Example 17, 7-(4-ethylpiperazin-1-yl)-thieno[2,3-c]pyridine] | 82.9 | 83.6 |
| Brc1ccc2ccnc(N3CCNCC3)c2c1 [Production Example 30, 7-bromo-1-piperazin-1-ylisoquinoline] | 93.4 | 92.8 |
| COc1ccc2ccnc(N3CCN(Cc4ccc5c(c4)OCO5)CC3)c2c1 [Production Example 71, 1-(4-benzo[1,3]dioxol-5-ylmethylpiperazin-1-yl)-7-methoxyisoquinoline] | 42.2 | 94.8 |

Next, values leading:

| inhibition at 0.1 µM (human 5-HT3 receptor) [%] | inhibition at 0.1 µM (human 5-HT1A receptor) [%] | Compound |
| --- | --- | --- |
| 1.9 | 50.6 | COc1ccc(-n2c(CCCCN3CCN(c4ccc5ccccc5n4)CC3)nc3ccccc3c2=O)cc1 [Example 7-17, 3-(4-methoxyphenyl)-2-[4-(4-quinolin-2-ylpiperazin-1-yl)butyl]-3H-quinazolin-4-one] |
| 50 | 100 | NN1Oc2c(sc3c2CCNC3)N=C1SCCCN1CCN(c2ccc3ccccc3n2)CC1 [Example 1-59, 3-amino-2-[3-(4-quinolin-2-ylpiperazin-1-yl)propylthio]-3,4,5,6,7,8-hexahydro-4-oxa-9-thia-1,3,7-triaza-9H-fluorene trihydrochloride] |
| 7.1 | 16.1 | CCn1c(CCCCN2CCN(c3nc4ccccc4s3)CC2)nc2c(c1=O)CCCC2 [Example 7-10, 2-[4-(4-benzothiazol-2-ylpiperazin-1-yl)butyl]-3-ethyl-5,6,7,8-tetrahydro-3H-quinazolin-4-one] |
| 66.8 | 72.2 | O=c1c2ccccc2nc(CCCCN2CCN(c3ccc4ccccc4n3)CC2)n1Cc1ccccc1 [Example 7-16, 3-benzyl-2-[4-(4-quinolin-2-ylpiperazin-1-yl)butyl]-3H-quinazolin-4-one] |
| 90.2 | 87 | Cn1c(SCCCN2CCN(c3ccc4ccccc4n3)CC2)nc2c(c1=O)CCCC2 [Example 7-27] |
| 74.5 | 76 | Cc1cc(N2CCN(CCCNc3nc4c(c(=O)[nH]3)CCCC4)CC2)nc2ccccc12 [Example 5-3, 2-[3-[4-(4-methylquinolin-2-yl)piperazin-1-yl]propylamino]-5,6,7,8-tetrahydro-3H-quinazolin-4-one] |
| 7.4 | 85 | Cn1c(CCCCN2CCN(c3ccc4ccccc4n3)CC2)nc2c(cnn2C)c1=O [Example 7-19, 1,5-dimethyl-6-[4-(4-quinolin-2-ylpiperazin-1-yl)butyl]-1,5-dihydropyrazolo[3,4-d]pyrimidin-4-one] |
| 71.6 | 85.2 | Cn1c(CCCCN2CCN(c3ccc4ccccc4n3)CC2)nc2ccc(Br)cc2c1=O [Example 7-26, 6-bromo-3-methyl-2-[4-(4-quinolin-2-ylpiperazin-1-yl)butyl]-3H-quinazolin-4-one] |
| 94 | 94.5 | Cc1sc2nc(SCCCN3CCN(c4ccc5ccccc5n4)CC3)n(N)c(=O)c2c1C [Example 1-1, 3-amino-5,6-dimethyl-2-[3-(4-quinolin-2-ylpiperazin-1-yl)-propylthio]-3H-thieno[2,3-d]pyrimidin-4-one] |

Reference: US7799775B2, “Pyrimidine derivatives” (ASKA Pharmaceutical Co., Ltd., priority 2004, dated 2010)
